The results in this text go back to the supplement of paper PMC10307832.

Holding throughout (assay): relative viability (nuclei count vs DMSO), 5 days (fraction); higher = more cells survive
Compound in the assay “XMD13-2 + Alpelisib”: C1CC1C(=O)NC2=NNC3=C2C=CC(=C3)C4=CC(=CC=C4)C(=O)NC5CC5 [XMD13-2] + Cc1nc(NC(=O)N2CCC[C@H]2C(N)=O)sc1-c1ccnc(C(C)(C)C(F)(F)F)c1 [Alpelisib] (partner 2 µM)
An outline of the steps:
(§1)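 Relative viability divides the nuclei count in treated wells by that in vehicle wells. Lung cancer cell lines were seeded in 1536-well plates, dosed by pin tool the next day, and fixed and stained after 5 days in one step with final 0.05% Triton X-100, 1% formaldehyde and 1 ug/ml Hoechst. Dosing was a single drug or a fixed anchor-drug dose plus five library-drug doses (not always all listed) in √10 steps, and values are medians of duplicate plates imaged at 4×.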

Compound in the assay “Dasatinib + Pictilisib”: Cc1nc(Nc2ncc(C(=O)Nc3c(C)cccc3Cl)s2)cc(N2CCN(CCO)CC2)n1 [Dasatinib] + CS(=O)(=O)N1CCN(Cc2cc3nc(-c4cccc5[nH]ncc45)nc(N4CCOCC4)c3s2)CC1 [Pictilisib] (partner 1 µM)
The method, boiled down:
as §1

Compound in the assay “ALW-II-49-7 + Linsitinib”: Cc1ccc(C(=O)Nc2cccc(C(F)(F)F)c2)cc1Nc1cncc(C(N)=O)c1 [ALW-II-49-7] + C[C@]1(O)C[C@@H](c2nc(-c3ccc4ccc(-c5ccccc5)nc4c3)c3c(N)nccn32)C1 [Linsitinib] (partner 1 µM)
An outline of the steps: as §1

Compound in the assay “Dasatinib + Vorinostat”: Cc1nc(Nc2ncc(C(=O)Nc3c(C)cccc3Cl)s2)cc(N2CCN(CCO)CC2)n1 [Dasatinib] + O=C(CCCCCCC(=O)Nc1ccccc1)NO [Vorinostat] (partner 1 µM)
An outline of the steps:
as §1

For UMC-11, the relative viability worked out at 1.22 in the assay with XMD13-2 + Alpelisib (first compound 0.05 µM); 1.07 with XMD13-2 + Alpelisib (first compound 0.1581 µM); 0.944 with XMD13-2 + Alpelisib (first compound 0.5 µM); 0.924 with XMD13-2 + Alpelisib (first compound 1.581 µM); 1.13 in the assay with XMD13-2 + Alpelisib (first compound 5 µM); 0.735 in the assay with Dasatinib + Pictilisib (first compound 0.005 µM). The relative viability worked out at 0.64 with Dasatinib + Pictilisib (first compound 0.01581 µM); 0.49 with Dasatinib + Pictilisib (first compound 0.05 µM); 0.288 with Dasatinib + Pictilisib (first compound 0.1581 µM); 0.288 with Dasatinib + Pictilisib (first compound 0.5 µM); 0.989 with ALW-II-49-7 + Linsitinib (first compound 0.08 µM); 0.902 in the assay with ALW-II-49-7 + Linsitinib (first compound 0.253 µM). In addition, the relative viability in the assay with ALW-II-49-7 + Linsitinib (first compound 2.53 µM) worked out at 1.12; with ALW-II-49-7 + Linsitinib (first compound 8 µM), 1.04; with Dasatinib + Vorinostat (first compound 0.005 µM) it was 0.409; with Dasatinib + Vorinostat (first compound 0.01581 µM) it was 0.289; with Dasatinib + Vorinostat (first compound 0.05 µM) it was 0.315; with Dasatinib + Vorinostat (first compound 0.1581 µM), 0.203. In addition, in the assay with Dasatinib + Vorinostat (first compound 0.5 µM), the relative viability stood at 0.218.
